Experiments:
human recombinant HDAC6 = target: T1, human recombinant HDAC6 (Homo sapiens, UniProt Q9UBN7); assay: HDAC enzyme activity inhibition assay (HDAC Fluorimetric Drug Discovery Kit), HDAC6; type: biochemical; conditions: for HDAC6 selectivity (fold): HDAC1 vs HDAC6; for IC50: human recombinant HDAC6, same protocol as HDAC1
T1 construct: purchased Calbiochem Inc. 382180
T1 sequence (Q9UBN7 1-1215): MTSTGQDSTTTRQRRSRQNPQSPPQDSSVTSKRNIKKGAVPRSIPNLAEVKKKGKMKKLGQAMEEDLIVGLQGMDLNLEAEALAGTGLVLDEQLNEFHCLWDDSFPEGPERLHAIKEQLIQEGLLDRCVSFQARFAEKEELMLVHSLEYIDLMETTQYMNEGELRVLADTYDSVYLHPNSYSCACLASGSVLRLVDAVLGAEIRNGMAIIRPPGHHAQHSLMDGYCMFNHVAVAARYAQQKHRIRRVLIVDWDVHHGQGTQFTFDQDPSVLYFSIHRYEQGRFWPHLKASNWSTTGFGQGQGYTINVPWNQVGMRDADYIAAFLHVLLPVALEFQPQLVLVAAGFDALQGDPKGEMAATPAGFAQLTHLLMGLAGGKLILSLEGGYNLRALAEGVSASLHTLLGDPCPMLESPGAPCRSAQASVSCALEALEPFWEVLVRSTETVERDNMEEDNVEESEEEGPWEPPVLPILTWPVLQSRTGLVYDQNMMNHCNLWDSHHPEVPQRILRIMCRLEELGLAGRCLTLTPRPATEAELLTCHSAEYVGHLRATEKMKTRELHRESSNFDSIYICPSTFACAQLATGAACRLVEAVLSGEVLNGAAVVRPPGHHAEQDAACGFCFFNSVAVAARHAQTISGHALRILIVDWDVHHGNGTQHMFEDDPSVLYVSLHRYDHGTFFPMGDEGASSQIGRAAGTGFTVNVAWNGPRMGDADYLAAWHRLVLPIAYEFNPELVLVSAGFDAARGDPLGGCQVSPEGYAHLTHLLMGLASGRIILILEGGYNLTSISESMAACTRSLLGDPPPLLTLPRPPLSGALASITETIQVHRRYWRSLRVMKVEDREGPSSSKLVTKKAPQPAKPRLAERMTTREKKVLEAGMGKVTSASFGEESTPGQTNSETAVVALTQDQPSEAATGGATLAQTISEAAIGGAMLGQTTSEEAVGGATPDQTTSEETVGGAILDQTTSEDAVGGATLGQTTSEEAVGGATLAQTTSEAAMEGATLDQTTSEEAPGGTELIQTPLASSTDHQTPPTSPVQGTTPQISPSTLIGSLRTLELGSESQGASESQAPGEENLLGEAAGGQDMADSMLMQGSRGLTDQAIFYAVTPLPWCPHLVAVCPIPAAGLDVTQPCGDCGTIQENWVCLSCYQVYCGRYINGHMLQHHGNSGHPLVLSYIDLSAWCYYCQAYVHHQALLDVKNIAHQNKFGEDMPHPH
In short: (§1)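 Recombinant human HDAC1 or HDAC6 (0.3 μg) reacted with 10 μM Fluor de Lys-SIRT1 substrate at 30 °C for 60 min. Developer added for 30 min, then fluorescence read at Ex 360/Em 460.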

human recombinant HDAC1 = target: T2, human recombinant HDAC1 (Homo sapiens, UniProt Q13547); assay: HDAC enzyme activity inhibition assay (HDAC Fluorimetric Drug Discovery Kit), HDAC1; type: biochemical; conditions: human recombinant HDAC1, Fluor de Lys-SIRT1 substrate, 30° C. 60 minutes
T2 construct: purchased Enzo Life Sciences, Inc. BML-SE456
T2 sequence (Q13547 whole entry): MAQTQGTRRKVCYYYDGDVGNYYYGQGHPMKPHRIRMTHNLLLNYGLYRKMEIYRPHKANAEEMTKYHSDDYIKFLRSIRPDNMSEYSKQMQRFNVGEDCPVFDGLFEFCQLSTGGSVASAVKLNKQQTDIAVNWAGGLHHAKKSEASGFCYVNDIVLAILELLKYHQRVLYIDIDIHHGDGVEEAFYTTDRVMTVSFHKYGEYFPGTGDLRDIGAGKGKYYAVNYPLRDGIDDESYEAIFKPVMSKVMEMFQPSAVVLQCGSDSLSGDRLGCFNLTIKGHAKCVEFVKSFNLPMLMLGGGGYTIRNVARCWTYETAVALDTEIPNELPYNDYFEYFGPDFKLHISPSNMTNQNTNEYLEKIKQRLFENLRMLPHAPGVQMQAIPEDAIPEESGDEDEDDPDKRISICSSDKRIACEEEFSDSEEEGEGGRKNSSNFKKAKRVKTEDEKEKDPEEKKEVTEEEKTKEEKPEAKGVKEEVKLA
In short: as §1

SMILES | HDAC6 selectivity (fold) (human recombinant HDAC6) | IC50 (human recombinant HDAC6) | IC50 (human recombinant HDAC1)
O=C(N(Cc1ccc(-c2nnc(C(F)F)o2)cn1)c1cccc(F)c1)C1(F)CN(C2CCCCC2)C1 [Compound 3053, 1-cyclohexyl-N-((5-(5-(difluoromethyl)-1,3,4-oxadiazol-2-yl)pyridin-2-yl)methyl)-3-fluoro-N-(3-fluorophenyl)azetidine-3-carboxamide] | 668 fold | 74.8 nM | > 50 µM
CC(C)N1CC(F)(C(=O)N(Cc2ccc(-c3nnc(C(F)F)o3)cn2)c2cccc(F)c2)C1 [Compound 3048, N-((5-(5-(difluoromethyl)-1,3,4-oxadiazol-2-yl)pyridin-2-yl)methyl)-3-fluoro-N-(3-fluorophenyl)-1-isopropylazetidine-3-carboxamide] | 237 fold | 78 nM | 18.5 µM
CC(C)CN1CCC(N2CC(F)(C(=O)N(Cc3ccc(-c4nnc(C(F)F)o4)cn3)c3ccccc3)C2)CC1 [Compound 3114, N-((5-(5-(difluoromethyl)-1,3,4-oxadiazol-2-yl)pyridin-2-yl)methyl)-3-fluoro-1-(1-isobutylpiperidin-4-yl)-N-phenylazetidine-3-carboxamide] | 1,524 fold | 32.8 nM | > 50 µM
CC(C)CN1CC(N2CC(F)(C(=O)N(Cc3ccc(-c4nnc(C(F)F)o4)cn3)c3cccc(F)c3)C2)C1 [Compound 3223, N-((5-(5-(difluoromethyl)-1,3,4-oxadiazol-2-yl)pyridin-2-yl)methyl)-3-fluoro-N-(3-fluorophenyl)-1′-isobutyl-[1,3′-biazetidine]-3-carboxamide] | 1,424 fold | 35.1 nM | > 50 µM
CC(C)CN1CCC(N2CC(F)(C(=O)N(Cc3ccc(-c4nnc(C(F)F)o4)cn3)c3cccc(F)c3)C2)CC1 [Compound 3403, N-((5-(5-(difluoromethyl)-1,3,4-oxadiazol-2-yl)pyridin-2-yl)methyl)-3-fluoro-N-(3-fluorophenyl)-1-(1-isobutylpiperidine-4-yl)azetidine-3-carboxamide] | 911 fold | 28.8 nM | 26.3 µM
O=C(N(Cc1ccc(-c2nnc(C(F)F)o2)cn1)c1cccc(F)c1)C1(F)CN(C2COC2)C1 [Compound 3050, N-((5-(5-(difluoromethyl)-1,3,4-oxadiazol-2-yl)pyridin-2-yl)meth 1)-3-fluoro-N-(3-fluorophenyl)-1-(oxetan-3-yl)azetidine-3-carboxamide] | 683 fold | 73.2 nM | > 50 µM
CN1CCC(F)(C(=O)N(Cc2ccc(-c3nnc(C(F)F)o3)cn2)c2cccc(F)c2)CC1 [Compound 2969, N-((5-(5-(difluoromethyl)-1,3,4-oxadiazol-2-yl)pyridin-2-yl)methyl)-4-fluoro-N-(3-fluorophenyl)-1-methylpiperidine-4-carboxamide] | 1,298 fold | 38.5 nM | > 50 µM
O=C(N(Cc1ccc(-c2nnc(C(F)F)o2)cn1)c1cccc(F)c1)C1(F)CN(C2CN(C3CCOC3)C2)C1 (stereo not drawn) [Compound 3397, N-((5-(5-(difluoromethyl)-1,3,4-oxadiazol-2-yl)pyridin-2-yl)methyl)-3-fluoro-N-(3-fluorophenyl)-1′-(tetrahydrofuran-3-yl)-[1,3′-biazetidine]-3-carboxamide] | 1,022 fold | 23.2 nM | 23.7 µM
O=C(N(Cc1ccc(-c2nnc(C(F)F)o2)cn1)c1ccccc1)C1(F)CCN(C2CCCC2)CC1 [Compound 2996, 1-cyclopentyl-N-((5-(5-(difluoromethyl)-1,3,4-oxadiazol-2-yl)pyridin-2-yl)methyl)-4-fluoro-N-phenylpiperidine-4-carboxamide] | 443 fold | 56.1 nM | 24.9 µM
O=C(C1CCC1)N1CC(F)(C(=O)N(Cc2ccc(-c3nnc(C(F)F)o3)cn2)c2cccc(F)c2)C1 [Compound 3168, 1-(cyclobutanecarbonyl)-N-((5-(5-(difluoromethyl)-1,3,4-oxadiazol-2-yl)pyridin-2-yl)methyl)-3-fluoro-N-(3-fluorophenyl)azetidine-3-carboxamide] | 2,906 fold | 17.2 nM | > 50 µM

The remaining compounds from weak to strong by IC50 (human recombinant HDAC6), led by results:

HDAC6 selectivity (fold) (human recombinant HDAC6) | IC50 (human recombinant HDAC6) | IC50 (human recombinant HDAC1) | SMILES
178 fold | 280 nM | > 50 µM | CC(C)C(=O)N1CCC(F)(C(=O)N(Cc2ccc(-c3nnc(C(F)F)o3)cc2F)c2ccccc2)CC1 [Compound 3440, N-(4-(5-(difluoromethyl)-1,3,4-oxadiazol-2-yl)-2-fluorobenzyl)-4-fluoro-1-isobutyryl N-phenylpiperidine-4-carboxamide]
544 fold | 91.8 nM | > 50 µM | CC(C)N1CC(F)(C(=O)N(Cc2ccc(-c3nnc(C(F)F)o3)cc2F)c2ccccc2)C1 [Compound 3431, N-(4-(5-(difluoromethyl)-1,3,4-oxadiazol-2-yl)-2-fluorobenzyl)-3-fluoro-1-isopropyl-N-phenylazetidine-3-carboxamide]
624 fold | 80.1 nM | > 50 µM | CCN1CC(F)(C(=O)N(Cc2ccc(-c3nnc(C(F)F)o3)cc2F)c2ccccc2)C1 [Compound 3430, N-(4-(5-(difluoromethyl)-1,3,4-oxadiazol-2-yl)-2-fluorobenzyl)-1-ethyl-3-fluoro-N-phenylazetidine-3-carboxamide]
1,190 fold | 42 nM | > 50 µM | O=C(N(Cc1ccc(-c2nnc(C(F)F)o2)cn1)c1cccc(F)c1)C1(F)CCN(C2COC2)CC1 [Compound 2972, N-((5-(5-(difluoromethyl)-1,3,4-oxadiazol-2-yl)pyridin-2-yl)methyl)-4-fluoro-N-(3-fluorophenyl)-1-(oxetan-3-yl)piperidine-4-carboxamide]
1,388 fold | 36 nM | > 50 µM | O=C(N(Cc1ccc(-c2nnc(C(F)F)o2)cn1)c1cccc(F)c1)C1(F)CN(C2CN(C3COC3)C2)C1 [Compound 3395, N-((5-(5-(difluoromethyl)-1,3,4-oxadiazol-2-yl)pyridin-2-yl)methyl)-3-fluoro-N-(3-fluorophenyl)-1′-(oxetan-3-yl)-[1,3′-biazetidine]-3-carboxamide]
1,543 fold | 32.4 nM | > 50 µM | CCCCN1CCC(N2CC(F)(C(=O)N(Cc3ccc(-c4nnc(C(F)F)o4)cn3)c3ccccc3)C2)CC1 [Compound 3113, 1-(1-butylpiperidin-4-yl)-N-((5-(5-(difluoromethyl)-1,3,4-oxadiazol-2-yl)pyridin-2-yl)methyl)-3-fluoro-N-phenylazetidine-3-carboxamide]
917 fold | 28.4 nM | 26.1 µM | CC(C)CN1CC(F)(C(=O)N(Cc2ccc(-c3nnc(C(F)F)o3)cn2)c2ccccc2)C1 [Compound 3004, N-((5-(5-(difluoromethyl)-1,3,4-oxadiazol-2-yl)pyridin-2-yl)methyl)-3-fluoro-1-isobutyl-N-phenylazetidine-3-carboxamide]
771 fold | 26.5 nM | 20.4 µM | O=C(N(Cc1ccc(-c2nnc(C(F)F)o2)cn1)c1cccc(F)c1)C1(F)CN(C2CCN(C3CCC3)CC2)C1 [Compound 3405, 1-(1-cyclobutylpiperidin-4-yl)-N-((5-(5-(difluoromethyl)-1,3,4-oxadiazol-2-yl)pyridin-2-yl)methyl)-3-fluoro-N-(3-fluorophenyl)azetidine-3-carboxamide]
2,192 fold | 22.8 nM | > 50 µM | O=C(N(Cc1ccc(-c2nnc(C(F)F)o2)cn1)c1cccc(F)c1)C1(F)CN(C2CCSCC2)C1 [Compound 3172, N-((5-(5-(difluoromethyl)-1,3,4-oxadiazol-2-yl)pyridin-2-yl)methyl)-3-fluoro-N-(3-fluorophenyl)-1-(tetrahydro-2H-thiopyran-4-yl)azetidine-3-carboxamide]

— patent US20230278995A1, “1,3,4-OXADIAZOLE DERIVATIVE COMPOUNDS AS HISTONE DEACETYLASE 6 INHIBITOR, AND THE PHARMACEUTICAL COMPOSITION COMPRISING THE SAME” (CHONG KUN DANG PHARMACEUTICAL CORP., priority 2020, published 2023)
